The EC50 is the concentration needed to bring the measured effect to its halfway point.

The target of this test is γ-secretase (Homo sapiens, UniProt P49768). The experiment in a line: Cellular γ-secretase assay (inhibition of Aβ42 secretion, AlphaLisa). The format is cell-based. The conditions noted are these: Human neuroglioma H4 cells overexpressing human APP695 Swedish double mutation (K595N/M596L); 24 hr compound incubation; secreted Aβ42 in supernatant. On the procedure:
Human neuroglioma H4 cells overexpressing human APP695 with the Swedish double mutation (K595N/M596L) were plated at 30,000 cells/well/100 μl in 96-well plates in IMDM media containing 10% FCS, 0.2 mg/l Hygromycin B and incubated at 37° C., 5% CO2.
3-4 hr post plating, compounds are a diluted in media and 50 μl is added as 1.5-fold concentrate to achieve the final concentration. Compound incubation is performed for 24 hr. Final doses typically range from 4 μM down to 0.0013 μM in half-log steps resulting in a eight point dose response curve.
Appropriate controls using vehicle only and reference compound were applied to this assay. The final concentration of Me2SO was 0.4%.
After incubation at 37° C., 5% CO2, the supernatant was subjected to quantification of secreted Aβ42 by the means of an AlphaLisa assay kit (Human Amyloid beta 1-42 Kit: Cat # AL203C, Perkin Elmer). 20 μl of the cell culture supernatant was transferred to an assay plate. Then 10 μl of a mixture of the AlphaLisa coupled capture antibody and the biotinylated detection antibody was added and incubated for 3 hours at room temperature while softly shaking the assay plate. After a further addition of 20 μl of the Donor beads the assay plate was incubated for 30 min at room temperature and constant shaking without exposure to direct light. The assay plate was then read on a Paradigm AlphaLisa Reader using the build-in program with excitation at 680 nm and emission at […].
The measured signals were then used to calculate IC50 values for inhibition of Aβ42 secretion by nonlinear regression fit analysis using XLfit 5.3 software (IDBS).
Consider `Cc1cc(N2CC3CCC(C2)C3Nc2nc3c(O[C@@H](C)C(F)(F)F)nccn3n2)sn1` (single isomer, unassigned) [Example 36, N-[(8 endo)-3-(3-methylisothiazol-5-yl)-3-azabicyclo[3.2.1]octan-8-yl]-8-((2S or 2R)-1,1,1-trifluoropropan-2-yl)oxy)-[1,2,4]triazolo[1,5-a]pyrazin-2-amine], for which a half-maximal response (EC50) required 6 nM.

In the case of `Cc1nsc(N2CC3CCC(C2)C3Nc2nc3c(OC(C)C(F)(F)F)cccn3n2)n1` (single isomer, unassigned) [Example 6, N-[(8 endo)-3-(3-methyl-1,2,4-thiadiazol-5-yl)-3-azabicyclo[3.2.1]octan-8-yl]-8-[(2S or 2R)-1,1,1-trifluoropropan-2-yl]oxy-[1,2,4]triazolo[1,5-a]pyridin-2-amine], the EC50 was found to be 16 nM.

With “N[(8 endo)-3-(6-methylpyrimidin-4-yl)-3-azabicyclo[3.2.1]octan-8-yl]-8-(2,2,3,3,3-pentafluoropropoxy)-[1,2,4]triazolo[1,5-a]pyridin-2-amine [Example 54]”, the concentration giving a half-maximal response (EC50) is 14 nM.

`Cc1cc(N2C[C@H]3CC[C@@H](C2)[C@H]3Nc2nc3c(OC(C)C(F)(F)F)cccn3n2)on1` (single isomer, unassigned) [Example 43, N-[(8 endo)-3-(3-methyl-1,2-oxazol-5-yl)-3-azabicyclo[3.2.1]octan-8-yl]-8-[(2R or 2S)-1,1,1-trifluoropropan-2-yl]oxy-[1,2,4]triazolo[1,5-a]pyridin-2-amine]: the midpoint of the response, the EC50, lay at 27 nM.

For `Cc1cc(N2CC3CCC(C2)C3Nc2nc3c(O[C@H](C)C(F)(F)F)nccn3n2)sn1` (single isomer, unassigned) [Example 35, N-[(8 endo)-3-(3-methylisothiazol-5-yl)-3-azabicyclo[3.2.1]octan-8-yl]-8-((2R or 2S)-1,1,1-trifluoropropan-2-yl)oxy)-[1,2,4]triazolo[1,5-a]pyrazin-2-amine], it took 6 nM to reach a half-maximal effect (EC50).

As to `Cc1nsc(N2CC3CCC(C2)C3Nc2nc3c(OC(C)C(F)(F)F)cccn3n2)n1` (single isomer, unassigned) [Example 5, N-[(8-endo)-3-(3-methyl-1,2,4-thiadiazol-5-yl)-3-azabicyclo[3.2.1]octan-8-yl]-8-[(2R or 2S)-1,1,1-trifluoropropan-2-yl]oxy-[1,2,4]triazolo[1,5-a]pyridin-2-amine], the concentration giving a half-maximal response (EC50) is 27 nM. This EC50 lies about 4.5-fold higher than the previous one.

In the case of `Cc1noc(N2CC3CCC(C2)C3Nc2nc3c(O[C@H](C)C(F)(F)F)ccc(C(F)(F)F)n3n2)n1` (single isomer, unassigned) [Example 81, N-[(8-endo)-3-(3-methyl-1,2,4-oxadiazol-5-yl)-3-azabicyclo[3.2.1]octan-8-yl]-5-(trifluoromethyl)-8-[(1R or 1S)-2,2,2-trifluoro-1-methyl-ethoxy]-[1,2,4]triazolo[1,5-a]pyridin-2-amine], the response was half-maximal at 43 nM (EC50).

For the origin of these results see patent US10562903B2, “Bridged piperidine derivatives” (Hoffmann-La Roche Inc., priority 2015, dated 2020).
